The supplement of paper PMC10307832

Assays:
Assay in all cases: relative viability (nuclei count vs DMSO), 5 days (fraction); higher = more cells survive
CAL-12T = settings: first compound 0.5 µM
Summary of the method: (§1)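 Relative viability divides the nuclei count in treated wells by that in vehicle wells. Lung cancer cell lines were seeded in 1536-well plates, dosed by pin tool the next day, and fixed and stained after 5 days in one step with final 0.05% Triton X-100, 1% formaldehyde and 1 ug/ml Hoechst. Dosing was a single drug or a fixed anchor-drug dose plus five library-drug doses (not always all listed) in √10 steps, and values are medians of duplicate plates imaged at 4×.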

NCI-H1792 = system: NCI-H1792
Summary of the method: as §1

NCI-H727 = system: NCI-H727
Summary of the method: as §1

NCI-H2228 = system: NCI-H2228
Summary of the method: as §1

BEN = system: BEN
Summary of the method: as §1

LCLC-97TM1 = system: LCLC-97TM1
Summary of the method: as §1

201T = system: 201T
Summary of the method: as §1

NCI-H1793 = system: NCI-H1793
Summary of the method: as §1

SK-LU-1 = system: SK-LU-1
Summary of the method: as §1

NCI-H3122 = system: NCI-H3122
Summary of the method: as §1

NCI-H1395 = system: NCI-H1395
Summary of the method: as §1

LXF-289 = system: LXF-289
Summary of the method: as §1

Nc1ccn([C@@H]2O[C@H](CO)[C@@H](O)[C@@H]2O)c(=O)n1 [Cytarabine] + Cc1nc(Nc2ncc(C(=O)Nc3c(C)cccc3Cl)s2)cc(N2CCN(CCO)CC2)n1 [Dasatinib] (partner 0.075 µM)
relative viability (CAL-12T): 0.109
relative viability (NCI-H1792; first compound 0.005 µM): 1.34
relative viability (NCI-H1792; first compound 0.01581 µM): 0.657
relative viability (NCI-H1792; first compound 0.05 µM): 0.603
relative viability (NCI-H1792; first compound 0.1581 µM): 0.503
relative viability (NCI-H1792; first compound 0.5 µM): 0.355
relative viability (NCI-H727; first compound 0.005 µM): 0.319
relative viability (NCI-H727; first compound 0.01581 µM): 0.303
relative viability (NCI-H727; first compound 0.05 µM): 0.447
relative viability (NCI-H727; first compound 0.1581 µM): 0.271
relative viability (NCI-H727; first compound 0.5 µM): 0.294
relative viability (NCI-H2228; first compound 0.005 µM): 0.299
relative viability (NCI-H2228; first compound 0.01581 µM): 0.158
relative viability (NCI-H2228; first compound 0.05 µM): 0.159
relative viability (NCI-H2228; first compound 0.1581 µM): 0.0724
relative viability (NCI-H2228; first compound 0.5 µM): 0.0511
relative viability (BEN; first compound 0.005 µM): 0.332
relative viability (BEN; first compound 0.01581 µM): 0.312
relative viability (BEN; first compound 0.05 µM): 0.204
relative viability (BEN; first compound 0.1581 µM): 0.175
relative viability (BEN; first compound 0.5 µM): 0.213
relative viability (LCLC-97TM1; first compound 0.005 µM): 0.795
relative viability (LCLC-97TM1; first compound 0.01581 µM): 0.839
relative viability (LCLC-97TM1; first compound 0.05 µM): 0.798
relative viability (LCLC-97TM1; first compound 0.1581 µM): 0.227
relative viability (LCLC-97TM1; first compound 0.5 µM): 0.264
relative viability (201T; first compound 0.005 µM): 0.659
relative viability (201T; first compound 0.01581 µM): 0.642
relative viability (201T; first compound 0.05 µM): 0.709
relative viability (201T; first compound 0.1581 µM): 0.444
relative viability (201T; first compound 0.5 µM): 0.501
relative viability (NCI-H1793; first compound 0.005 µM): 0.364
relative viability (NCI-H1793; first compound 0.01581 µM): 0.37
relative viability (NCI-H1793; first compound 0.05 µM): 0.387
relative viability (NCI-H1793; first compound 0.1581 µM): 0.257
relative viability (NCI-H1793; first compound 0.5 µM): 0.191
relative viability (SK-LU-1; first compound 0.005 µM): 0.179
relative viability (SK-LU-1; first compound 0.01581 µM): 0.157
relative viability (SK-LU-1; first compound 0.05 µM): 0.17
relative viability (SK-LU-1; first compound 0.5 µM): 0.147
relative viability (NCI-H3122; first compound 0.005 µM): 0.807
relative viability (NCI-H3122; first compound 0.01581 µM): 0.76
relative viability (NCI-H3122; first compound 0.05 µM): 0.789
relative viability (NCI-H3122; first compound 0.1581 µM): 0.349
relative viability (NCI-H3122; first compound 0.5 µM): 0.17
relative viability (NCI-H1395; first compound 0.005 µM): 0.385
relative viability (NCI-H1395; first compound 0.01581 µM): 0.34
relative viability (NCI-H1395; first compound 0.05 µM): 0.374
relative viability (NCI-H1395; first compound 0.1581 µM): 0.319
relative viability (NCI-H1395; first compound 0.5 µM): 0.282
relative viability (LXF-289; first compound 0.005 µM): 0.221
relative viability (LXF-289; first compound 0.01581 µM): 0.202
relative viability (LXF-289; first compound 0.05 µM): 0.171
relative viability (LXF-289; first compound 0.1581 µM): 0.112
relative viability (LXF-289; first compound 0.5 µM): 0.0684
